pIC50: −log10 of the molar value. Some results are limits rather than exact numbers.

Common to all, as to experiment: Long term proliferation assay (15 days)
Assay type in all cases: cell-based

The subject of one assay is LNCAP. To be noted: Homo sapiens, 360 h, read-out: EZM2302 IC50 (absolute, long term proliferation), PROSTATE, day 15. As to the method:
(§1) Long term (14–15 day) cell proliferation assays were performed using the method previously described with adjustments to initial seeding densities depending on growth characteristics for each cell line[54],[55]. For 6 day proliferation studies, see Supplementary Methods.
(§2) Supplementary Table S2. Long term proliferation IC50 values of cell lines dosed with EZM2302. A panel of cell lines was treated with EZM2302fo r 15 da ys in a long term proliferation assa y. Abs olute IC 50 values were calculated in GraphPad Pri sm (non -linear regression anal ysis, top of the curves were fixed to 100%) for each line at d ay 15 .

Another assay deals with HT29. To be noted: Homo sapiens, HT-29, 360 h, read-out: EZM2302 IC50 (absolute, long term proliferation); HT29, LARGE, day 15. On the procedure: as §1, §2
Another assay relates to BT474. The following applies: Homo sapiens, BT-474, 360 h, read-out: EZM2302 IC50 (absolute, long term proliferation); BT474, BREAST, day 15. As to the method:
as §1, §2

The subject of the next assay is VCAP. To be noted: Homo sapiens, 360 h, read-out: EZM2302 IC50 (absolute, long term proliferation), PROSTATE, day 15. As to the method:
as §1, §2

In a further assay the test system is MCF7. To be noted: Homo sapiens, 360 h, read-out: EZM2302 IC50 (absolute, long term proliferation); MCF7, BREAST, day 15. On the procedure:
as §1, §2

In the next assay the test system is HCT116. The following applies: Homo sapiens, HCT-116, 360 h, read-out: EZM2302 IC50 (absolute, long term proliferation); HCT116, LARGE, day 15. On the procedure: as §1, §2
The next assay concerns BT20. To be noted: Homo sapiens, BT-20, 360 h, read-out: EZM2302 IC50 (absolute, long term proliferation); BT20, BREAST, day 15. As to the method: as §1, §2
The subject of another assay is PC3. To be noted: Homo sapiens, PC-3, 360 h, read-out: EZM2302 IC50 (absolute, long term proliferation); PC3, PROSTATE, day 15. On the procedure:
as §1, §2

Take `CNC[C@@H](O)COc1ccc(Cl)c(-c2nc(-c3c(C)noc3C)c(C)c(N3CC4(CCN(C(=O)OC)CC4)C3)n2)c1` [EZM2302]: the pIC50 in the assay with LNCAP was 4.91; with HT29, below 4.70; in the assay with BT474, below 4.70; in the assay on VCAP, below 4.70; in the assay with MCF7, below 4.70; in the assay on HCT116, below 4.70. In addition, the pIC50 in the assay with BT20 and in the assay with PC3 was below 4.70 in each case.

(Values after article PMC5740082, “Identification of a CARM1 Inhibitor with Potent In Vitro and In Vivo Activity in Preclinical Models of Multiple Myeloma” (Scientific Reports, 2017).)
